This note sets out measurements from patent US20050020550A1, “Selective testicular 11beta-HSD inhibitors and methods of use thereof” (priority 2003, published 2005).

One experiment deals with T1, 11β-HSD1 Reductase (Rattus norvegicus, UniProt P16232).
T1 construct: an enzyme present in testicular Leydig cells; endogenous in cells; host or cells: freshly prepared rat Leydig cells
Description: Inhibition of 11β-HSD1 reductase (Table 1). Format: cell-based.

A further experiment has as its target T2, 11β-HSD1 Dehydrogenase (Rattus norvegicus, UniProt P16232).
T2 construct: an enzyme present in testicular Leydig cells; endogenous in cells; host or cells: freshly prepared rat Leydig cells
Description: Inhibition of 11β-HSD1 dehydrogenase (Table 1). It is filed as cell-based.

In another experiment the target is T3, 11β-HSD2 Dehydrogenase (Homo sapiens, UniProt P80365).
T3 sequence (P80365 1-405): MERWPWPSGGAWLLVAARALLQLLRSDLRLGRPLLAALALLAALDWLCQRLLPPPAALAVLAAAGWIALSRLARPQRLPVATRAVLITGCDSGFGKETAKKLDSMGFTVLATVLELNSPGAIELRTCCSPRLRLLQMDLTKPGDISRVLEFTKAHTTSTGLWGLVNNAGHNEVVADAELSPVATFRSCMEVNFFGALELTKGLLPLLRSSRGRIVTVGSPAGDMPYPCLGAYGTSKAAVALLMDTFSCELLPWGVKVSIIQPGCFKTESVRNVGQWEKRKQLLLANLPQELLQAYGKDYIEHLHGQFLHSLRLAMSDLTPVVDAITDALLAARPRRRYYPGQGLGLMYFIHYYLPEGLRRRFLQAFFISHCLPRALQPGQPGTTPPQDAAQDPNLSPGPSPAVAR
Description: Inhibition of 11β-HSD2 dehydrogenase (Table 1). Format: biochemical.

T1 sequence (P16232 whole entry): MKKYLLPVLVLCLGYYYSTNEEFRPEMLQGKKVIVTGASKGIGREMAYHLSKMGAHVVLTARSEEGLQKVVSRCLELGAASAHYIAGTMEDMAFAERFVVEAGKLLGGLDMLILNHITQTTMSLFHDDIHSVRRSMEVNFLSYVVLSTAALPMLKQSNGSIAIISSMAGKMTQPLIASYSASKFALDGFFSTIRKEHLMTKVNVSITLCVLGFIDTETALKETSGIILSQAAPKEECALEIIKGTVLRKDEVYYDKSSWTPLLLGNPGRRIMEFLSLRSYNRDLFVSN
T2 sequence (P16232 whole entry): as above

Turning to `CC(=O)[C@H]1CC[C@@H]2[C@@H]3CCC4=CC(=O)CC[C@]4(C)[C@@H]3[C@@H](O)C[C@]12C` [11β-OH—progesterone], the “11β-HSD1 Reductase (inhibition)” value on 11β-HSD1 Reductase is given as “No Inhibition”. Moreover, at 11β-HSD1 Dehydrogenase, the “11β-HSD1 Dehydrogenase (inhibition)” value is “Potent Inhibitor (Non-Selective)”.

Consider `C[C@]12CC[C@H](O)C[C@H]1CC[C@@H]1[C@H]2[C@@H](O)C[C@@]2(C)[C@@H]1CC[C@@H]2O` [3α,5β-reduced- 11β-OH—testosterone], for which, at 11β-HSD1 Reductase, the “11β-HSD1 Reductase (inhibition)” value is given as “No Inhibition”. Further, the “11β-HSD1 Dehydrogenase (inhibition)” value on 11β-HSD1 Dehydrogenase was “Moderate Inhibitor”. Further, the “11β-HSD2 Dehydrogenase (inhibition)” value on 11β-HSD2 Dehydrogenase is reported as “No Inhibition”.

As for `C[C@]12CCC(=O)C=C1CC[C@@H]1[C@H]2C(=O)C[C@]2(C)C(=O)CC[C@H]12` (stereo in doubt) [11-Keto-androstenedione], the “11β-HSD1 Reductase (inhibition)” value at 11β-HSD1 Reductase is “Selective Inhibitor”. Also, the “11β-HSD1 Dehydrogenase (inhibition)” value on 11β-HSD1 Dehydrogenase was “No Inhibition”. For the same compound, the “11β-HSD2 Dehydrogenase (inhibition)” value on 11β-HSD2 Dehydrogenase is given as “No Inhibition”.

Consider `C[C@]12CC[C@H](O)C[C@@H]1CC[C@H]1[C@@H]3CC[C@H](C(=O)CO)[C@@]3(C)CC(=O)[C@@H]12` [3α,5α-tetrahydro-11-dehydro-corticosterone], for which the “11β-HSD1 Reductase (inhibition)” value on 11β-HSD1 Reductase was “Potent Inhibitor”. Besides, the “11β-HSD1 Dehydrogenase (inhibition)” value at 11β-HSD1 Dehydrogenase was “No Inhibition”. Besides, the “11β-HSD2 Dehydrogenase (inhibition)” value at 11β-HSD2 Dehydrogenase was “Potent Inhibitor”.

For the compound `C[C@]12CC[C@H](O)C[C@H]1CC[C@@H]1[C@H]2[C@@H](O)C[C@@]2(C)[C@@H]1CC[C@@H]2O` [3α,5α-reduced- 11β-OH—testosterone], the “11β-HSD1 Reductase (inhibition)” value on 11β-HSD1 Reductase was “No Inhibition”. Further, the “11β-HSD1 Dehydrogenase (inhibition)” value on 11β-HSD1 Dehydrogenase is given as “Potent Inhibitor (Non-Selective)”. Moreover, the “11β-HSD2 Dehydrogenase (inhibition)” value at 11β-HSD2 Dehydrogenase is “Potent Inhibitor (Non-Selective)”.

`C[C@]12CC[C@H](O)C[C@H]1CC[C@@H]1[C@H]2[C@@H](O)C[C@]2(C)C(=O)CC[C@H]12` [3α,5α-reduced- 11β-OH—androstenedione]: on 11β-HSD1 Reductase, the “11β-HSD1 Reductase (inhibition)” value is listed as “No Inhibition”. Moreover, the “11β-HSD1 Dehydrogenase (inhibition)” value on 11β-HSD1 Dehydrogenase is “Moderate Inhibitor”. For the same compound, at 11β-HSD2 Dehydrogenase, the “11β-HSD2 Dehydrogenase (inhibition)” value is “Potent Inhibitor (Non-Selective)”.

For `C[C@H](CCC(=O)O)[C@H]1CC[C@H]2[C@@H]3[C@H](O)C[C@@H]4C[C@H](O)CC[C@]4(C)[C@H]3CC[C@]12C` [chenodeoxycholic acid], the “11β-HSD1 Reductase (inhibition)” value on 11β-HSD1 Reductase is recorded as “No Inhibition”. In addition, the “11β-HSD1 Dehydrogenase (inhibition)” value at 11β-HSD1 Dehydrogenase was “Selective inhibitor”. Also, the “11β-HSD2 Dehydrogenase (inhibition)” value at 11β-HSD2 Dehydrogenase is listed as “No Inhibition”.

Consider `C[C@]12C[C@H](O)[C@@H]3[C@@H](CCC4=CC(=O)CC[C@@]43C)[C@H]1CC[C@@H]2O` [11β-OH—testosterone], for which the “11β-HSD1 Reductase (inhibition)” value at 11β-HSD1 Reductase is on record as “No Inhibition”. Also, the “11β-HSD1 Dehydrogenase (inhibition)” value on 11β-HSD1 Dehydrogenase is recorded as “Inhibitor (Non-Selective)”. On 11β-HSD2 Dehydrogenase, the “11β-HSD2 Dehydrogenase (inhibition)” value is listed as “Inhibitor (Non-Selective)”.

In the case of `C[C@]12CC(=O)[C@@H]3[C@@H](CCC4=CC(=O)CC[C@@]43C)[C@H]1CC[C@@H]2O` [11-Keto-testosterone], the “11β-HSD1 Reductase (inhibition)” value at 11β-HSD1 Reductase was “Selective Inhibitor”. Besides, the “11β-HSD1 Dehydrogenase (inhibition)” value on 11β-HSD1 Dehydrogenase is listed as “No Inhibition”. Besides, the “11β-HSD2 Dehydrogenase (inhibition)” value at 11β-HSD2 Dehydrogenase is on record as “No Inhibition”.

With `C[C@]12CC[C@H](O)C[C@@H]1CC[C@H]1[C@@H]3CC[C@H](O)[C@@]3(C)CC(=O)[C@@H]12` [3α,5α-reduced-11-keto-testosterone], the “11β-HSD1 Reductase (inhibition)” value at 11β-HSD1 Reductase is given as “Selective Inhibitor”. For the same compound, the “11β-HSD1 Dehydrogenase (inhibition)” value at 11β-HSD1 Dehydrogenase is reported as “No Inhibition”.

Consider `C[C@]12CC[C@H](O)C[C@@H]1CC[C@@H]1[C@@H]2C(=O)C[C@]2(C)C(=O)CC[C@@H]12` [3α,5α-reduced-11-keto-androstenedione], for which, at 11β-HSD1 Reductase, the “11β-HSD1 Reductase (inhibition)” value is reported as “Selective Inhibitor”. Besides, the “11β-HSD1 Dehydrogenase (inhibition)” value at 11β-HSD1 Dehydrogenase is “No Inhibition”.
